Laboratory results from the NIST ThermoML archive (doi:10.1007/s10765-009-0566-6).

Assays:
[1] = refractive index (Na D-line) (dimensionless); mn = molality of the nth substance listed, in mol/kg; details: 101 kPa, Liquid, Standard Abbe refractometry
[2] = osmotic coefficient (dimensionless); mn = molality of the nth substance listed, in mol/kg; details: Liquid, vapor pressure osmometry

CCCCCn1cc[n+](C)c1.[Cl-] [1-methyl-3-pentylimidazolium chloride] + O
Details | osmotic coefficient, 298.15 K | osmotic coefficient, 308.15 K | osmotic coefficient, 318.15 K | osmotic coefficient, 328.15 K | refractive index, 298.15 K | refractive index, 308.15 K | refractive index, 318.15 K | refractive index, 328.15 K
[1], m1 = 0.014 | – | – | – | – | 1.3331 | 1.3318 | 1.3302 | 1.3282
[1], m1 = 0.0263 | – | – | – | – | 1.3334 | 1.3321 | 1.3305 | 1.3284
[1], m1 = 0.0391 | – | – | – | – | 1.3338 | 1.3324 | 1.3308 | 1.3288
[1], m1 = 0.0518 | – | – | – | – | 1.3342 | 1.3328 | 1.3313 | 1.3291
[1], m1 = 0.0634 | – | – | – | – | 1.3344 | 1.3331 | 1.3316 | 1.3294
[1], m1 = 0.084 | – | – | – | – | 1.3351 | 1.3339 | 1.3322 | 1.3305
[1], m1 = 0.1007 | – | – | – | – | 1.3358 | 1.3344 | 1.3327 | 1.3309
[1], m1 = 0.1369 | – | – | – | – | 1.3367 | 1.3357 | 1.3336 | 1.3316
[1], m1 = 0.1784 | – | – | – | – | 1.3379 | 1.3367 | 1.3349 | 1.3328
[1], m1 = 0.2198 | – | – | – | – | 1.3392 | 1.3378 | 1.3359 | 1.3339
[1], m1 = 0.2765 | – | – | – | – | 1.3408 | 1.3397 | 1.3377 | 1.3356
[1], m1 = 0.3517 | – | – | – | – | 1.343 | 1.3416 | 1.3397 | 1.3376
[1], m1 = 0.4043 | – | – | – | – | 1.3443 | 1.343 | 1.3411 | 1.3389
[1], m1 = 0.5014 | – | – | – | – | 1.347 | 1.3457 | 1.3437 | 1.3419
[1], m1 = 0.5758 | – | – | – | – | 1.3489 | 1.3475 | 1.3457 | 1.344
[1], m1 = 0.8464 | – | – | – | – | 1.3558 | 1.3547 | 1.3523 | 1.3505
[1], m1 = 1.002 | – | – | – | – | 1.3596 | 1.3579 | 1.3557 | 1.3537
[1], m1 = 1.376 | – | – | – | – | 1.3679 | 1.3658 | 1.3639 | 1.3619
[1], m1 = 1.797 | – | – | – | – | 1.3764 | 1.3745 | 1.3721 | 1.3697
[2], m1 = 0.014 | 0.931 | 0.938 | 0.941 | 0.949 | – | – | – | –
[2], m1 = 0.0263 | 0.889 | 0.905 | 0.911 | 0.923 | – | – | – | –
[2], m1 = 0.0391 | 0.882 | 0.887 | 0.903 | 0.908 | – | – | – | –
[2], m1 = 0.0518 | 0.871 | 0.878 | 0.885 | 0.897 | – | – | – | –
[2], m1 = 0.0634 | 0.863 | 0.868 | 0.878 | 0.886 | – | – | – | –
[2], m1 = 0.084 | 0.852 | 0.858 | 0.865 | 0.87 | – | – | – | –
[2], m1 = 0.1007 | 0.841 | 0.845 | 0.854 | 0.866 | – | – | – | –
[2], m1 = 0.1369 | 0.821 | 0.829 | 0.845 | 0.849 | – | – | – | –
[2], m1 = 0.1784 | 0.805 | 0.812 | 0.831 | 0.837 | – | – | – | –
[2], m1 = 0.2198 | 0.797 | 0.803 | 0.822 | 0.828 | – | – | – | –
[2], m1 = 0.2765 | 0.79 | 0.795 | 0.803 | 0.809 | – | – | – | –
[2], m1 = 0.3517 | 0.781 | 0.788 | 0.794 | 0.799 | – | – | – | –
[2], m1 = 0.4043 | 0.768 | 0.78 | 0.784 | 0.79 | – | – | – | –
[2], m1 = 0.5014 | 0.75 | 0.753 | 0.76 | 0.771 | – | – | – | –
[2], m1 = 0.5758 | 0.735 | 0.742 | 0.748 | 0.756 | – | – | – | –
[2], m1 = 0.8464 | 0.722 | 0.726 | 0.735 | 0.739 | – | – | – | –
[2], m1 = 1.002 | 0.71 | 0.715 | 0.723 | 0.73 | – | – | – | –
[2], m1 = 1.376 | 0.697 | 0.704 | 0.711 | 0.718 | – | – | – | –
[2], m1 = 1.797 | 0.687 | 0.691 | 0.697 | 0.704 | – | – | – | –
